Laboratory results from article PMC9785606, “Design and Synthesis of Novel Phenylahistin Derivatives Based on Co-Crystal Structures as Potent Microtubule Inhibitors for Anti-Cancer Therapy” (Marine Drugs, 2022).
Marks after values point to notes of the source that are not given here.

How the values were obtained:
[1] = tested on: human lung cancer NCI-H460 cell line; assay: MTT cytotoxicity assay, lung cancer NCI-H460 cell line; assay type: cell-based; details: mean ± SD
Protocol: (§1) Human cancer cell lines (lung cancer NCI-H460 cell line, pancreatic cancer BxPC-3 cell line, colon cancer HT-29 cell line) were purchased from American Type Cell Culture Collection (ATCC, Manassas, VA, USA). Cells were maintained in RPMI-1640 medium supplemented with 10% (v/v) heat-inactivated fetal bovine serum, penicillin-streptomycin (100 U/mL-100 […]) at 37 °C in a humidified atmosphere (5% CO2–95% air). All tested derivatives were dissolved in 100% cell culture grade DMSO. Cells (3 × 10^3 per well) were seeded in 96-well plates for 24 h. Then, cells were treated with the tested compounds in six concentrations for 72 h. Cell viability was assessed by MTT assay. The absorbance at 490 nm was measured with a Microplate Reader (Molecular Devices, Silicon Valley, CA, USA). The data were analyzed by Origin 8.5 (OriginLab, Northampton, MA, USA).

[2] = tested on: colon cancer HT-29 cell line; assay: MTT cytotoxicity assay, colon cancer HT-29 cell line; assay type: cell-based; details: Homo sapiens, 72 h, mean ± SD
Protocol: as §1

[3] = tested on: pancreatic cancer BxPC-3 cell line; assay: MTT cytotoxicity assay, pancreatic cancer BxPC-3 cell line; assay type: cell-based; details: Homo sapiens, 72 h, mean ± SD
Protocol: as §1

[4] = tested on: microtubules in NCI-H460 cells; assay: Immunofluorescence assay of microtubules (β-tubulin/DAPI staining); assay type: cell-based, human; details: 24 h
Protocol: To further explore the effect of phenylahistin derivatives 1 and 15p on microtubules in cancer cells, an immunofluorescence assay was performed. […] The inhibitory activities were consistent with the previously shown anti-proliferative activities.
NCI-H460 cells were seeded in 24-well plate (with coverslips plated) at the density of 5 × 10^4 cells. […] Then, cells were fixed with 4% cold paraformaldehyde at 4 °C for 15 min and then permeabilized in 0.05% Triton X-100 for 10 min. The cells were blocked in 1% BSA for 30 min. Microtubules were detected by incubation with a monoclonal anti-β-tubulin (β-tubulin antibody was obtained from Servicebio, Wuhan, China.) at 4 °C for 12 h. Subsequently, the cells were washed with PBS and incubated with a FITC-conjugated anti-mouse IgG antibody. Nuclei were stained with DAPI (G1012, Servicebio, Wuhan, China). The coverslips were visualized under fluorescence microscope (Nikon Eclipse C1, Nikon, Japan) and an image-forming system (Nikon DS-U3, Nikon, Tokyo, Japan).

[5] = tested on: H22 hepatoma carcinoma cells transplanted tumor; assay: H22 subcutaneous transplanted tumor model, intravenous administration; details: for Tumor Volume (D15): 14 consecutive days; for Tumor Volume (D1): D1 (baseline), mean ± SD; for Tumor Weight: excised at end of administration; for IR (tumor weight inhibition rate): IR = (1 − TWt/TWc) × 100%
Protocol: The anticancer effect of the compound 15p was further evaluated against H22 tumor-bearing mice models by intravenous injection at doses of 2 mg/kg, or 4 mg/kg, two or three times a week, and for 14 consecutive days. Docetaxel (10 mg/kg), plinabulin (4 mg/kg), and cyclophosphamide (20 mg/kg) were used as the positive controls.
Balb/c mice (4–6 weeks old, 16–18 g) were purchased from Shanghai Sippr-BK laboratory animal Co. Ltd. The animal study protocol was approved by Institutional Review Board of Science and Technology Division of Linyi University (review opinion on behalf of the Ethics Committee) (The protocol code is LYU20220107, provided on 10 March 2022). H22 cells were grown in RPMI-1640 midium supplemented with 10% fetal bovine serum, and maintained at 37 °C in humidified 5% CO2. Cells were passaged when they reached 70–80% confluence. Viable H22 cells (1 × 10^7 cells/0.2 ml 0.9% sodium chloride) were injected into the peritoneal cavity of BALB/C mice to trigger ascitic cell growth. Later, cells were harvested and suspended. H22 cancer cells (2 × 10^7 cells/0.1 ml 0.9% sodium chloride cells) were subcutaneously injected into the right flank of each mouse. After implantation, the tumor size was measured with an electronic caliper twice a week, and the tumor volume was calculated according to the following formula: tumor volume (mm^3) = 0.5 × length × width^2. When the tumor volume reached about 130 mm^3, the xenograft tumor-bearing BALB/C mice were randomly placed into six groups at 10 mice per group: vehicle, plinabulin (4 mg/kg), 15p ([…]), 15p ([…]), cyclophosphamide (20 mg/kg) and docetaxel (10 mg/kg) groups. Docetaxel, plinabulin, and cyclophosphamide were chosen as positive control drug. The reference compound docetaxel and cyclophosphamide were completely dissolved in isotonic saline. […] The solution of compound 15p was diluted with the concentrated solution and in isotonic saline at a calculated ratio. The solutions of plinabulin were made up according to similar methods. The mice received intravenous administration (iv) every two or three days for consecutive 14 days. The tumor volumes and the body weights were recorded every two or three days after treatment. At the end of the administration period, the animals were euthanized by dislocation, and the tumor bulks were peeled off conforming to the Guide for the Animal use and Management of Shanghai Medicilon Biological Medicine Co. Ltd. The tumor volume was calculated according to the Principles of Non-clinical Research Techniques for Anti-tumor Drugs of Cytotoxic Drugs by China Food and Drug Administration.

caspase-3 = assay: Western blotting of caspase-3 expression; assay type: cell-based
Protocol: Western blot was performed as previously described with antibody caspase-3 (1:1000) (WB0177/WB0176) or GAPDH (1:3000) (WB0197/WB0196, Shanghai Wei-Ao Biotechnology Co., Shanghai, China). Densities of the Western blotting bands were quantified using ImageJ 19.0. (NIH, Bethesda, MD, USA).

[6] = 10 mg/kg iv, listed as docetaxel
[7] = 20 mg/kg iv, listed as cyclophosphamide
[8] = 4 mg/kg iv, listed as plinabulin

SMILES	melting point [°C]	IC50 ([1]; Homo sapiens, NCI-H460, 72 h) [nM]	further results
Cc1c(/C=c2\[nH]c(=O)/c(=C/c3cccc(C(=O)c4ccc(F)cc4)c3)[nH]c2=O)ncn1CCCNC(=O)OC(C)(C)C [15n]	206 to 208	145.7 ± 0.27	–
CC(C)c1c(/C=c2\[nH]c(=O)/c(=C/c3cccc(C(=O)c4ccc(F)cc4)c3)[nH]c2=O)ncn1CCN [16b]	190 to 192	11.3	IC50 [2]: 5.92 ± 0.39 nM; IC50 [3]: 3.27 ± 0.09 nM; IC50 ([1]; 72 h): 11.3 ± 3.45 nM
CC(C)c1c(/C=c2\[nH]c(=O)/c(=C/c3cccc(C(=O)c4ccc(F)cc4)c3)[nH]c2=O)ncn1CCCNC(=O)OC(C)(C)C [15o]	179 to 180	12.7 ± 0.71	–
CC(C)c1c(/C=c2\[nH]c(=O)/c(=C/c3cccc(C(=O)c4ccc(F)cc4)c3)[nH]c2=O)ncn1C [15c]	225 to 227	3.65 ± 0.18	–
CCCn1cnc(/C=c2\[nH]c(=O)/c(=C/c3cccc(Oc4ccc(F)cc4)c3)[nH]c2=O)c1C(C)C [15h]	201 to 203	5.4 ± 0.15	–
C#CCn1cnc(/C=c2\[nH]c(=O)/c(=C/c3cccc(C(=O)c4ccc(F)cc4)c3)[nH]c2=O)c1C(C)C [15q]	150 to 152	1.49 ± 0.31	IC50 [2]: 0.67 ± 0.035 nM; IC50 [3]: 1.15 ± 0.042 nM
CCCCn1cnc(/C=c2\[nH]c(=O)/c(=C/c3cccc(C(=O)c4ccc(F)cc4)c3)[nH]c2=O)c1C(C)C [15k]	198 to 201	0.94 ± 0.11	–
CC(C)(C)c1[nH]cnc1/C=c1\[nH]c(=O)/c(=C/c2cccc(C(=O)c3ccc(F)cc3)c2)[nH]c1=O [compound 1]	–	–	Effect on microtubule networks ([4]; 2 nM): microtubule networks were damaged
CCn1cnc(/C=c2\[nH]c(=O)/c(=C/c3cccc(Oc4ccc(F)cc4)c3)[nH]c2=O)c1C(C)C [15e]	195 to 198	12.2 ± 0.27	–
CC(C)c1c(/C=c2\[nH]c(=O)/c(=C/c3cccc(C(=O)c4ccc(F)cc4)c3)[nH]c2=O)ncn1CCCN [16d]	199 to 201	5.38 ± 1.46	IC50 [2]: 2.45 ± 0.42 nM; IC50 [3]: 2.35 ± 1.75 nM
CCn1cnc(/C=c2\[nH]c(=O)/c(=C/c3cccc(C(=O)c4ccc(F)cc4)c3)[nH]c2=O)c1C(C)C [15f]	234 to 236	2.01 ± 0.19	–
CC(=O)O[C@@]12CO[C@@H]1C[C@H](O)[C@@]1(C)C(=O)[C@H](O)C3=C(C)[C@@H](OC(=O)[C@H](O)[C@@H](NC(=O)OC(C)(C)C)c4ccccc4)C[C@@](O)([C@@H](OC(=O)c4ccccc4)[C@H]21)C3(C)C [Docetaxel]	–	–	Tumor Volume (D15) ([5]; 10 mg/kg iv): 903.6 ± 421.7* mm^3; Tumor Volume (D15) [5, 6]: 903.6 mm^3; Tumor Volume (D1) ([5]; 10 mg/kg iv): 103.6 ± 30.75 mm^3; Tumor Weight ([5]; 10 mg/kg iv): 0.55 ± 0.22 g; Tumor Weight [5, 6]: 0.55 g; IR (tumor weight inhibition rate) ([5]; 10 mg/kg iv): 51.6%
CCn1cnc(/C=c2\[nH]c(=O)/c(=C/c3cccc(C(=O)c4ccc(F)cc4)c3)[nH]c2=O)c1C [15d]	227 to 229	16.9 ± 1.5	–
O=P1(N(CCCl)CCCl)NCCCO1 (stereo not drawn) [Cyclophosphamide]	–	–	Body weight compared to the control group ([5]; 20 mg/kg iv): decreased the body weights; Tumor Volume (D15) ([5]; 20 mg/kg iv): 687.2 ± 288.6* mm^3; Tumor Volume (D15) [5, 7]: 687.2 mm^3; Tumor Volume (D1) ([5]; 20 mg/kg iv): 105.1 ± 30.26 mm^3; Tumor Weight ([5]; 20 mg/kg iv): 0.42 ± 0.24 g; Tumor Weight [5, 7]: 0.42 g; IR (tumor weight inhibition rate) ([5]; 20 mg/kg iv): 62.6%
Cc1c(/C=c2\[nH]c(=O)/c(=C/c3cccc(C(=O)c4ccc(F)cc4)c3)[nH]c2=O)ncn1C [15a]	224 to 226	21.1	IC50 ([1]; 72 h): 21.1 ± 1.3 nM
CCCCn1cnc(/C=c2\[nH]c(=O)/c(=C/c3cccc(Oc4ccc(F)cc4)c3)[nH]c2=O)c1C(C)C [15j]	203 to 204	2.49 ± 0.28	Expression of caspase-3 vs control group and plinabulin group (caspase-3): significantly higher; IC50 [2]: 2.11 ± 0.09 nM; IC50 [3]: 1.13 ± 0.35 nM
Cc1c(/C=c2\[nH]c(=O)/c(=C/c3cccc(C(=O)c4ccc(F)cc4)c3)[nH]c2=O)ncn1CCNC(=O)OC(C)(C)C [15l]	189 to 191	105 ± 11.7	–
CCCn1cnc(/C=c2\[nH]c(=O)/c(=C/c3cccc(C(=O)c4ccc(F)cc4)c3)[nH]c2=O)c1C(C)C [15i]	200 to 202	1.67 ± 0.15	–
Cc1c(/C=c2\[nH]c(=O)/c(=C/c3cccc(C(=O)c4ccc(F)cc4)c3)[nH]c2=O)ncn1CCCN [16c]	247 to 248	103 ± 11.7	–
CC(C)c1c(/C=c2\[nH]c(=O)/c(=C/c3cccc(Oc4ccc(F)cc4)c3)[nH]c2=O)ncn1C [15b]	218 to 219	40.4 ± 0.82	–
CC(C)(C)c1[nH]cnc1/C=c1\[nH]c(=O)/c(=C/c2ccccc2)[nH]c1=O [Plinabulin]	–	26.2 ± 3.2	Effect on microtubule networks ([4]; 10 nM): microtubule networks were damaged; IC50 [2]: 6.6 ± 1.6 nM; IC50 [3]: 5.8 ± 0.2 nM; Tumor Volume (D15) ([5]; 4 mg/kg iv): 1425.3 ± 411.2 mm^3; Tumor Volume (D15) [5, 8]: 1425.3 mm^3; Tumor Volume (D1) ([5]; 4 mg/kg iv): 104.7 ± 26.66 mm^3; Tumor Weight ([5]; 4 mg/kg iv): 0.77 ± 0.31 g; Tumor Weight [5, 8]: 0.77 g; IR (tumor weight inhibition rate) ([5]; 4 mg/kg iv): 31.9%
CCCn1cnc(/C=c2\[nH]c(=O)/c(=C/c3cccc(C(=O)c4ccc(F)cc4)c3)[nH]c2=O)c1C [15g]	214 to 216	4.93 ± 0.25	–
CC(C)c1c(/C=c2\[nH]c(=O)/c(=C/c3cccc(C(=O)c4ccc(F)cc4)c3)[nH]c2=O)ncn1CCNC(=O)OC(C)(C)C [15m]	204 to 206	27.3 ± 1.32	–
Cc1c(/C=c2\[nH]c(=O)/c(=C/c3cccc(C(=O)c4ccc(F)cc4)c3)[nH]c2=O)ncn1CCN [16a]	180 to 182	33.4 ± 9.59	–
